The results in this text go back to PMC11359809, “Probing the molecular basis for signal transduction through the Zinc-Activated Channel (ZAC)” (Biochemical pharmacology, 2021).

Assay [1] deals with T1, m5-HT3A/ZAC (Mus musculus / Homo sapiens, UniProt P23979).
T1 sequence (P23979 24-246): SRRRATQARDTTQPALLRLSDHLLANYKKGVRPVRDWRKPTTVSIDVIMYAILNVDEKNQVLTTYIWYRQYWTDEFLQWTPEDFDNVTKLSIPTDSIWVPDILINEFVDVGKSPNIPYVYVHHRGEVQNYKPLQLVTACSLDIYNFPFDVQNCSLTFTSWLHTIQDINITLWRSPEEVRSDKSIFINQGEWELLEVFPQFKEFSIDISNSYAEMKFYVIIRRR
T1 sequence (Q401N2 231-412 partner): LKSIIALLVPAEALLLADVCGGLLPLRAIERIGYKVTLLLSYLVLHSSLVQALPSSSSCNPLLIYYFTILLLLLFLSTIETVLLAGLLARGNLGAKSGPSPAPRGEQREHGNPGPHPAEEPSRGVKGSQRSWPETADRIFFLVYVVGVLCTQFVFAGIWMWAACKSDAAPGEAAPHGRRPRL
The assay can be described thus: TEVC in oocytes expressing m5-HT3A/ZAC chimera. In kind it is cell-based. The text has this: The construction of the ZAC-pUNIV plasmid (encoding for the human WT ZAC that contains a Thr in position 128) has been described previously. The m5-HT3A and hα1 GlyR cDNAs were subcloned from their original vectors into pUNIV (Addgene, Watertown, MA) using NheI and EcoRI as restriction enzymes. […] The C-terminus modifications in these four chimeras were introduced in their cDNAs in the same way. Point mutations were introduced in cDNAs by use of the QuikChange mutagenesis kit (Stratagene, San Diego, CA). The validity and absence of unwanted mutations in the constructed cDNAs was verified by DNA sequencing (Macrogen Europe, Amsterdam, The Netherlands).
All cDNAs used for cRNA synthesis were inserted in the pUNIV vector. The cDNAs were linearized and subsequently transcribed and capped using the mMessage mMachine T7 RNA transcription kit (Ambion, Waltham, MA). […] Oocytes were incubated in a sterile modified Barth’s solution [88 mM NaCl, 1 mM KCl, 15 mM HEPES (pH 7.5), 2.4 mM NaHCO3, 0.41 mM CaCl2, 0.82 mM MgSO4, 0.3 mM Ca(NO3)2, 100 U/ml penicillin and 100 μg/ml streptomycin] at 16–18 °C. Based on experience gained with WT ZAC in a recent study, all TEVC recordings were performed two days after cRNA injection.
On the day of the TEVC recording, all compound dilutions were prepared in a saline solution [115 mM NaCl, 2.5 mM KCl, 10 mM MOPS (pH 7.5), 1.8 mM CaCl2, 0.1 mM MgCl2], and pH was adjusted to 7.5 (if needed). Oocytes were placed in a recording chamber continuously perfused with this saline solution, and the compounds were applied in the perfusate. Both voltage and current electrodes were agar-plugged with 3 M KCl with a resistance of 0.2–2.0 MΩ. Oocytes were voltage-clamped at −50 mV (except in the studies of the chimeras and their parent receptors where they were clamped at −60 mV, section 3.1), by a Gene Clamp 500B amplifier, and current signals were digitized by a Digidata 1322A (both from Axon Instruments, Union City, CA). Currents were recorded using pCLAMP 10 (Molecular Devices, Sunnyvale, CA). The recordings were performed at room temperature.
In all recordings, compounds or compound combinations were applied in the bath until the peak current decayed to a steady state (up to 30 s). […] The antagonist properties of compounds were determined by pre-application of the compound to the perfusate for 30 s followed by co-application of the compound and the agonist. In all recordings, washes of 1–5 min were executed between the ligand applications, the length of the washes depending on the agonist concentrations used and on the return to baseline current amplitude.
(§1) Analysis of the data from the TEVC recordings were performed using Clampfit software version 10.5 (Molecular Devices, Crawley, UK) and GraphPad Prism version 7.0c (GraphPad Software, La Jolla, CA). Unless otherwise stated, the inward currents induced by agonists in oocytes were normalized to the maximal response elicited by a specific agonist (agonist Imax) on each oocyte. Concentration-response and concentration-inhibition curves were fitted in GraphPad Prism by nonlinear regression using the equation for sigmoidal dose-response with variable slope. Each data point represents the mean ± S.E.M. value of recordings performed on at least five oocytes in total from at least two different batches. For the data where statistical analysis was performed, a one-way ANOVA was used. The null hypothesis was rejected at P < 0.05, and the differences between the means were analyzed by Tukey’s multiple comparisons test.

The test system of assay [2] is ZAC/hα1-Gly. Kind of assay: TEVC in oocytes expressing ZAC/hα1-Gly chimera. Conditions: pH 4.5. In kind it is cell-based, human. The method, then:
(§2) The recordings were performed at room temperature.
as §1
(§3) Initially, we constructed four chimeric subunits fusing the ZAC ECD or TMD-ICD with the complementary domains from either the m5-HT3A or the hα1 GlyR subunit: ZAC/m5-HT3A, m5-HT3A/ZAC, ZAC/hα1-Gly and hα1-Gly/ZAC (Fig. 1A). […] (Fig. 1A).

Assay [3] concerns ZAC/m5-HT3A. Kind of assay: TEVC in oocytes expressing ZAC/m5-HT3A chimera. It is filed as cell-based, mouse/human. Conditions: pH 4.5; n = 5. The method, then: as §2, §1, §3
For assay [4], the system named is hα1-Gly/ZAC. Kind of assay: TEVC in oocytes expressing hα1-Gly/ZAC chimera. In kind it is cell-based, human. The note with it: pH 4.5; n = 5. On the procedure:
as §2, §1, §3

Assay [5] has as its system ZAC/m5-HT3A-II. Kind of assay: TEVC in oocytes expressing ZAC/m5-HT3A-II chimera. In kind it is cell-based, mouse/human. The note with it: Zn^2+ 10 mM; H^+ pH 4.0; data not shown. The method, then: as §2
Assay [6] has as its target T2, ZAC^D116A/DH8A/H210A (Homo sapiens, UniProt Q401N2, A152T/D140A/D142A/H144A).
T2 construct: expressed in transfected cells; host or cells: Xenopus oocytes injected with cRNA (pUNIV vector)
Kind of assay: TEVC in oocytes, Cluster 1 triple mutant. It is filed as cell-based. The note with it: pH 4.0. On the procedure: as §2
as §1, with “For the data where statistical analysis was performed, a one-way ANOVA was used.” left out
(§4) The putative involvement of candidate residues in Clusters 1, 2, 3 and 4 in Zn^2+ binding to ZAC was investigated in by an elaborate alanine mutagenesis scanning. […] The determined IpH 4.0 value was used in part as a control and in part to enable the distinction of ZAC mutants non-responsive to Zn^2+ due to elimination of their ability to bind the metal ion from those where the mutation had eliminated cell surface expression and/or disrupted overall functionality of the receptor complex. […]

The target of assay [7] is T3, ZAC^H210A (Homo sapiens, UniProt Q401N2, A152T/H144A).
T3 construct: expressed in transfected cells; host or cells: Xenopus oocytes injected with cRNA (pUNIV vector)
T3 sequence (Q401N2 26-412 H144A/A152T): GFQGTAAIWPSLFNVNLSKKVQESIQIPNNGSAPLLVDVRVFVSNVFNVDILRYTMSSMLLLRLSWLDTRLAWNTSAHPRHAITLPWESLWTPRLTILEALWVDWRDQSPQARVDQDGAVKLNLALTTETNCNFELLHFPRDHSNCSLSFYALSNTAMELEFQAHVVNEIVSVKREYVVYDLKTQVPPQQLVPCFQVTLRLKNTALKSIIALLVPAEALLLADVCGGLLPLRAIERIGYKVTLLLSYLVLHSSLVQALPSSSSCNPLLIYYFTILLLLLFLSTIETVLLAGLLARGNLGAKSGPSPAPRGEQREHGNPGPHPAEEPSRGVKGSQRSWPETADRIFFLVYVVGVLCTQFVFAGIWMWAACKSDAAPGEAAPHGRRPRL
Kind of assay: TEVC in oocytes, His120 Ala mutant. In kind it is cell-based. Conditions: pH 4.0. The method, then:
as §2
as §1, with “For the data where statistical analysis was performed, a one-way ANOVA was used.” left out
as §4

The target in assay [8] is T4, ZAC^E136A/H139A/D143A/H144A (Homo sapiens, UniProt Q401N2, A152T/D167A/E160A/H163A/H168A).
T4 construct: expressed in transfected cells; host or cells: Xenopus oocytes injected with cRNA (pUNIV vector)
T4 sequence (Q401N2 26-412 A152T/E160A/H163A/D167A/H168A): as the sequence (Q401N2 26-412 H144A/A152T) above, with A119H, E135A, H138A, D142A, H143A counted along it
Kind of assay: TEVC in oocytes, Cluster 2 quadruple mutant. It is filed as cell-based. The note with it: Zn^2+ 10 mM; H^+ pH 4.0; data not shown. The method, then:
as §2
as §1, with “For the data where statistical analysis was performed, a one-way ANOVA was used.” left out
as §4

Assay [9] deals with T5, ZAC^E24A/E89A/D105A/D108A/E130A (Homo sapiens, UniProt Q401N2, A152T/D129A/D132A/E113A/E154A/E48A).
T5 construct: expressed in transfected cells; host or cells: Xenopus oocytes injected with cRNA (pUNIV vector)
T5 sequence (Q401N2 26-412 E48A/E113A/D129A/D132A/A152T/E154A): as the sequence (Q401N2 26-412 H144A/A152T) above, with E23A, E88A, D104A, D107A, A119H, E129A counted along it
The assay can be described thus: TEVC in oocytes, Cluster 3 quintuple mutant. It is filed as cell-based. Conditions: H^+ pH 4.0; Zn^2+ 10 mM; data not shown. On the procedure:
as §2
as §1, with “For the data where statistical analysis was performed, a one-way ANOVA was used.” left out
as §4

Assay [10] has as its target T6, WT m5-HT3AR (Mus musculus, UniProt P23979).
T6 construct: expressed in transfected cells; host or cells: Xenopus oocytes injected with cRNA (pUNIV vector)
T6 sequence (P23979 24-489): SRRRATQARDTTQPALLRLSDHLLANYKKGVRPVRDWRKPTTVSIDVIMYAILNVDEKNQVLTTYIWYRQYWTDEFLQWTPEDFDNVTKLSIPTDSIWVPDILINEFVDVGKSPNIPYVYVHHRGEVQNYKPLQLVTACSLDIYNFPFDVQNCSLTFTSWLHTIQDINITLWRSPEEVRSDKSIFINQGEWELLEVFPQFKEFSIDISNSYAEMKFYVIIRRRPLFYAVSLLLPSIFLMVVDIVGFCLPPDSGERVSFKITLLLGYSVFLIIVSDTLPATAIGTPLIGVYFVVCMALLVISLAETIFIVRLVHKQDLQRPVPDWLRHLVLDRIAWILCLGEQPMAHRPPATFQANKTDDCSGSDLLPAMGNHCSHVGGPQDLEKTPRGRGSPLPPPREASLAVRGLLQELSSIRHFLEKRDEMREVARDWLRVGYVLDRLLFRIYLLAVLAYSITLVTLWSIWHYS
The assay can be described thus: TEVC in Xenopus oocytes expressing WT m5-HT3AR. In kind it is cell-based. On the procedure:
as §2, §1

The subject of assay [11] is m5-HT3A^FPR/ZAC. Kind of assay: TEVC in oocytes, Cys-loop modified chimera m5-HT3A^FPR/ZAC. In kind it is cell-based, mouse/human. Conditions: data not shown. The method, then:
as §2
To probe the effects of exchanges of regions involved in the ECD/TMD cross-talk between the two CLRs fused in a chimera on its functionality, we constructed 12 additional chimeras, three for each of the four original chimeras (Fig. 1A). Inspired by the similar modifications that have been introduced in a functional GLIC/hα1-Gly chimera, we swapped one or both of two specific regions: the three-residue FPX (Phe-Pro-X) motif in the Cys-loop of the ECD (FPR, FPF and […] in ZAC, m5-HT3A and hα1 GlyR, respectively), which is known to protude into proximity of the M2-M3 linker during the ECD/TMD cross-talk, and the extracellular C-terminus of the TMD, which differs substantially in both amino acid sequence and length between ZAC and the two classical CLRs combined with it in the chimeras (Fig. 4B). […] In light of this, it was not surprising that the four chimeras comprising exchanges of both the FPX motif and the C-terminus also were non-functional (data not shown).

Setting [12] is: sustained (4 min) application of 100 μM 5-HT.
Setting [13] is: sustained (4 min) application of 3 μM 5-HT.

Molecules are shown by their SMILES. Values joined by “and” are separate entries in the source; they are usually repeats but may differ in a detail not shown here. Equal values may be shown once.

T2 sequence (Q401N2 26-412 D140A/D142A/H144A/A152T): as the sequence (Q401N2 26-412 H144A/A152T) above, with D115A, D117A counted along it

As for `[H+]` [H^+], the “IpH 4.5 ± S.E.M.” value in assay [1] (pH 4.5, n = 4) was −0.0027 ± 0.0007 μA; in assay [3], −0.0033 ± 0.0003 μA; in assay [4], −0.0045 ± 0.0019 μA. The agonist-evoked current entry is on record as “robust currents” in assay [2] and “did not evoke significant currents” in assay [5]. Also, the “IpH 4.0 range” value in [6] was 40–100 nA. Further, the “IpH 4.0” value in [7] is 30–110 nA. Besides, the agonist responsiveness entry in [8] and in [9] was “non-responsive” in each case.
As to `NCCc1c[nH]c2ccc(O)cc12` [5-HT, 5-hydroxytryptamine], the “Imax (current amplitude evoked by saturating agonist)” value in assay [10] (300 μM 5-HT, n = 7) is 2.92 ± 0.13 μA; in assay [1] (3 μM 5-HT, n = 12), 0.60 ± 0.19 μA. Moreover, the “nH ± S.E.M. (Hill slope)” value in assay [10] (agonist, n = 7) was 1.3 ± 0.3. Also, the “Iresidual, 4 min” value was ~0 (none) % of Ipeak in [10] (setting [12]); 67 % of Ipeak and 67 ± 6 % of Ipeak in assay [1] (setting [13]). Also, the Δtstart-to-peak was 2.1 ± 0.4 s in assay [10] (setting [12]) and 46 ± 7.2 s in assay [1] (setting [13]). Besides, the “time to complete return to baseline” value in assay [10] (sustained application of 100 μM 5-HT, mean ± S.E.M., n = 7) worked out at 98 ± 12 s. The results for the 5-HT-evoked current amplitudes in assay [1] (high-expressing half of the oocytes) and in assay [1] (low-expressing half of the oocytes) were 0.8–2.1 μA and 0.1–0.2 μA, respectively. Also, the “concentration-response relationship compared to m5-HT3A/ZAC” value in assay [11] is on record as “not significantly different”.
